# Measured values published in EPA's ToxValDB 9.5.
# Where “and” joins values, the source holds several entries; their conditions need not be identical. Equal entries are not always repeated.
# Key:
# [1] = system: Rattus norvegicus
# [2] = system: Rattus norvegicus; remark: listed apart in the source
# [3] = system: Rattus norvegicus; conditions: subchronic; duration: 13 weeks; oral; diet; M; Sprague-Dawley; renal
# [4] = system: Rattus norvegicus; conditions: oral, gavage, M/F, Crj:CD
# [5] = system: Rattus norvegicus; remark: listed apart in the source
# [6] = system: Rattus norvegicus; conditions: for LEL: uterotrophic, Active
# [7] = system: Mus musculus; conditions: uterotrophic, Active
# [8] = system: Oryctolagus sp.; conditions: acute; oral
# [9] = system: Rattus norvegicus; conditions: short-term; duration: 3 days; injection; subcutaneous; F; Crj:CD; uterus: uterine dry weight (absolute)
# [10] = subchronic, duration: 90 days, oral, M/F, hematologic, hepatic and renal toxicity
# [11] = chronic, duration: 1 years, oral, blood pressure and body weight histopathological liver, kidney and spleen
# [12] = Hershberger, duration: 10 days, oral, gavage, Sprague-Dawley, active + Androgenic + Negative + androgenic
# [13] = duration: 1 days, injection, subcutaneous
# [14] = duration: 7 days, injection, subcutaneous
# [15] = chronic, oral, gavage, F, increased kidney weight in female rats
# [16] = subchronic, duration: 13 weeks, inhalation, M/F, increased kidney weight in female rats and adrenal weight in male and female rats
smiles,measurement,setting,value
"CC1CO1 (racemic) [(+/-)-1,2-Propylene oxide]",LOAEL,"[1]; chronic, duration: 2 years, inhalation, M/F, nest-like infolds of the nasal respiratory epithelium",71 mg/m3
same,LOAEL,"[2]; chronic, duration: 2 years, inhalation, intermittent, Epithelium: Unspecified",71 mg/m3
"O=C(O)COc1ccc(Cl)cc1Cl [2,4-Dichlorophenoxyacetic acid]",LOAEL,[1]; [10],5 mg/kg-day
same,NOAEL,[1]; [10],1 mg/kg-day
same,NOAEL,[3],16.6 mg/kg-day
same,NOAEL,"[2]; chronic, duration: 91 days, oral, diet, Blood: Toxicity + Kidney: Toxicity + Liver: Toxicity",1 mg/kg-day
"Cc1ccc(O)cc1C [3,4-Dimethylphenol]",LOAEL,[1]; [11],14 mg/kg-day
same,NOEL,[1]; [11],1.4 mg/kg-day
same,NOEL,"[2]; chronic, duration: 8 months, oral, Cardiovascular system: Altered blood pressure + Organs, major: Lesions + Whole body: Decreased weight",1.4 mg/kg-day
"CC(C)CCCCCCc1ccc(O)cc1 [4-Nonylphenol, branched]",NOEL,"[4]; short-term, duration: 28 days, Deaths + Clinical Observation: Salivation, Urinary incontinence Abnormal estrus cycle + Hematology: Ret increase, RBC decrease, Plt increase…",10 mg/kg-day
same,LD50,"[5]; acute, oral",1880 mg/kg
same,NOAEL,"[5]; reproduction developmental, oral, diet, Sprague-Dawley",15 mg/kg-day
same,NOAEL,"[5]; short-term, duration: 28 days, oral, diet, Crl:CD(SD) BR",100 mg/kg-day
same,NOAEL,"[5]; subchronic, duration: 90 days, oral, diet, Sprague-Dawley",50 mg/kg-day
same,LEL,"[6]; duration: 3 days, oral",190 mg/kg-day
same,LEL,"[7]; duration: 3 days, injection, subcutaneous",1000 mg/kg-day
C#C[C@]1(O)CC[C@H]2[C@@H]3CCc4cc(O)ccc4[C@H]3CC[C@@]21C [17alpha-Ethinylestradiol],NOEL,"[4]; short-term, duration: 28 days, Body Weight Changes: decrease + Food Consumption: decrease + Blood Chemistry: A/G decrease >0 Cho decrease 0 Alp increase, gamma-GTP …",< 0.01 mg/kg-day
same,LOEL,[6]; [12],50 mg/kg-day
same,NOEL,[6]; [12],10 mg/kg-day
same,LEL,"[6]; duration: 1 days, dermal",0.125 mg/L
same,LEL,"[6]; duration: 3 days, oral, diet",0.001 mg/kg-day
same,LEL,"[6]; duration: 4 days, oral",0.03 mg/kg-day
same,LEL,"[6]; duration: 4 days, oral, diet",0.000342 mg/kg-day
same,LEL,"[6]; duration: 21 days, oral",0.01 mg/kg-day
same,LEL,"[6]; duration: 28 days, oral",0.2 mg/kg-day
same,LEL,"[7]; duration: 0 days, oral, diet",0.0001 ppm
same,LEL (fractional dose of pill),"[7]; duration: 3 days, oral",0.001
same,LEL,"[7]; duration: 4 days, injection, subcutaneous",0.002 mg/kg-day
COP(=O)(NC(C)=O)SC (configuration not stated) [Acephate],LEL,"[1]; subchronic, duration: 90 days, oral, diet, M, Inhibition of brain ChE",0.12 mg/kg-day
same,LOAEL,"[2]; subchronic, duration: 13 weeks, oral, diet, Brain: Decreased cholinesterase activity",0.192 mg/kg-day
O=C(OCc1ccccc1)c1ccc(O)cc1 [Benzyl 4-hydroxybenzoate],LEL,"[6]; duration: 3 days, oral",0.16 mg/kg-day
same,LEL,"[7]; duration: 3 days, dermal",100 mg/day
COc1ccc(-c2coc3cc(O)cc(O)c3c2=O)cc1 [Biochanin A],LEL,"[7]; duration: 4 days, oral, diet",2.5 mg/day
CC(C)(c1ccc(O)cc1)c1ccc(O)cc1 [Bisphenol A],LOAEL,"[1]; chronic, oral, M/F, reduced mean body weight",50 mg/kg-day
same,NOEL,"[4]; subchronic, Deaths + Clinical Observation: Loose stool Locomotor activity decrease, Hypopnea Subnormal temperature decrease + Body Weight Changes: …",40 mg/kg-day
same,LC50,"[5]; acute, inhalation, particle, Fischer 344",> 170 µg/mL
same,LD50,"[5]; acute, oral, Fischer 344",4100 mg/kg and 3300 mg/kg
same,NOAEL,"[5]; developmental, duration: 10 days, oral, gavage, Sprague-Dawley",> 640 mg/kg-day
same,NOAEL,"[5]; reproduction developmental, duration: 13 weeks, oral, diet, Sprague-Dawley, generation: F0",75 ppm
same,NOAEL,"[5]; reproduction developmental, duration: 13 weeks, oral, diet, Sprague-Dawley, generation: F1",750 ppm
same,LOAEL,"[5]; reproduction developmental, duration: 103 weeks, oral, diet, Fischer 344, generation: F0",1000 ppm
same,LD50,[8],2230 mg/kg
same,NOAEL,"[2]; subchronic, duration: 13 weeks, oral, Whole body: Decreased weight",750 ppm
same,LOEL,[9],20 mg/kg-day
same,NOEL,[9],2 mg/kg-day
same,LEL,[6]; [13],400 mg/kg-day
same,LEL,"[6]; duration: 2 days, injection, subcutaneous",200 mg/kg-day
same,LEL,"[6]; duration: 4 days, injection, intraperitoneal",0.5 mg/kg-day
same,LEL,[6]; [14],11 mg/kg-day
same,LEL,"[6]; duration: 7 days, lactation",150 mg/kg-day
same,LEL,"[7]; duration: 0.17 days, injection, subcutaneous",0.00228 mg
same,LEL,[7]; [13],10 mg/kg-day
same,LEL,"[7]; duration: 3 days, injection, intraperitoneal",20 mg/kg-day
same,LEL,"[7]; duration: 3 days, osmotic minipump",100 mg/kg-day
same,LEL,[7]; [14],100 mg/kg-day
COP(=S)(OC)Oc1cc(Cl)c(Br)cc1Cl [Bromofos],NOAEL,"[2]; reproduction developmental, oral, diet, Blood: Decreased cholinesterase activity + Liver: Decreased cholinesterase activity",5 mg/kg-day
ClC1=C(Cl)[C@]2(Cl)C3C(Cl)C(Cl)CC3[C@@]1(Cl)C2(Cl)Cl (some centres not stated) [Chlordane],NOEL,"[2]; chronic, duration: 130 weeks, oral, diet, Liver: Hypertrophy",0.055 mg/kg-day
C=CC(=C)Cl [Chloroprene],NOAEL,"[2]; chronic, duration: 2 years, inhalation, intermittent, Hair: Alopecia + Whole body: Decreased weight gain",36.2 mg/m3
same,NOAEL,"[2]; subchronic, duration: 90 days, inhalation, Olfactory epithelium: Degeneration",116 mg/m3
COP(=S)(OC)Oc1nc(Cl)c(Cl)cc1Cl [Chlorpyrifos-methyl],NOAEL,"[2]; reproduction developmental, duration: 3 years, oral, diet, Liver: Effects + Reproduction: Decreased fertility",1 mg/kg-day
same,LOEL,"[6]; Hershberger, duration: 10 days, oral, gavage, Sprague-Dawley, active + Negative + Antiandrogenic + anti-androgenic",50 mg/kg-day
CC(C)c1ccccc1 [Cumene],LOAEL,[1]; [15],331 mg/kg-day
same,NOAEL,[1]; [15],110 mg/kg-day
same,LOAEL,[1]; [16],5910 mg/m3
same,NOAEL,[1]; [16],2440 mg/m3
same,NOAEL,"[2]; chronic, duration: 194 days, oral, gavage, Kidney: Increased weight",154 mg/kg-day
same,NOAEL,"[2]; short-term, duration: 4 weeks, inhalation, intermittent, Central nervous system: Involvement + Nose: Irritation",517 mg/m3
